{"source": "patent US7638554B2", "about": "“Flavanoids as chemotherapeutic, chemopreventive, and antiangiogenic agents” (SRI International, priority 2002, dated 2009)", "key": {"[1]": {"tested_on": "MDA-MB-231 (ER−) breast cancer cell line", "assay": "Growth inhibition assay, MTT, MDA-MB-231 breast cancer cells", "format": "cell-based, human", "conditions": "Homo sapiens, MDA-MB-231, 192 h, eight days, average of at least two experiments", "description": "Compounds of the invention were tested for their ability to inhibit growth in two breast cancer cell lines, MCF-7 (ER+) and MDA-MB-231 (ER−).\nThe growth inhibition assays were conducted using routine methods. Briefly, the cells were seeded in 24-well plates at a density of 2000 cells per well in 200 μL of […] growth medium. To each well was added 10 μL of DMSO containing the dissolved test compound; final DMSO concentration in each well was not more than 0.5%. Each test compound was assayed at concentrations of 0.4, 2, 10, and 50 μM. The plates were incubated for eight days, with the media and test solutions replaced every third day. On Day 8, the viable cells were measured by the MTT assay, as described in Mosmann et al. (1983), “Rapid Colorimetric Assay for Cellular Growth and Survival: Application to Proliferation and Cytotoxicity,” J. Immunol. Method. 65:55-63. The optical density at 575 nm of each test well was measured and compared to that for control wells, and the data used to calculate the percentage of growth inhibition at different concentrations. The IC50 value (the concentration of growth inhibitor that results in 50% growth inhibition of the cells in culture relative to control cells not exposed to any growth inhibitor) was determined by plotting dose-response curves.\nThe calculated IC50 values are set forth in Table 1, with the results representing the average of at least two experiments conducted for each compound at each of the four concentrations."}, "[2]": {"tested_on": "ovarian cancer cell line OVCAR-3", "assay": "Growth inhibition, sulforhodamine-based protein determination, OVCAR-3", "format": "cell-based", "conditions": "Homo sapiens, OVCAR-3, 144 h; continuous exposure six days", "description": "(§1) The novel compound SR 13179 was assayed for its ability to inhibit growth in several cancer cell lines. The cell lines studied included breast cancer cell line MCF-7 (ER+); prostate cancer cell lines LNCaP, PC3, and DU145; lung cancer cell line A427; ovarian cancer cell lines IGROV1, OVCAR-3, OVCAR-4, OVCAR-5, OVCAR-8, and SK-OV-3; and colon cancer cell lines COLO 205, HCC-2998, HCT-116, HCT-15, HT29, KM12, AND SW-620.\n(§2) The growth assays for the breast cancer cell lines were conducted according to the method of Example 16. For the other cell lines, each assay was conducted with continuous exposure to the test compound at four log concentrations for six days, using a sulforhodamine-based protein determination to measure growth inhibition."}, "[3]": {"tested_on": "colon cancer cell line COLO 205", "assay": "Growth inhibition, sulforhodamine-based protein determination, COLO 205", "format": "cell-based", "conditions": "Homo sapiens, COLO 205, 144 h; continuous exposure six days", "description": "as §1, §2"}, "[4]": {"tested_on": "colon cancer cell line HCC-2998", "assay": "Growth inhibition, sulforhodamine-based protein determination, HCC-2998", "format": "cell-based", "conditions": "Homo sapiens, HCC 2998, 144 h; continuous exposure six days", "description": "as §1, §2"}, "[5]": {"tested_on": "colon cancer cell line HCT-116", "assay": "Growth inhibition, sulforhodamine-based protein determination, HCT-116", "format": "cell-based", "conditions": "Homo sapiens, HCT-116, 144 h; continuous exposure six days", "description": "as §1, §2"}, "[6]": {"tested_on": "colon cancer cell line SW-620", "assay": "Growth inhibition, sulforhodamine-based protein determination, SW-620", "format": "cell-based", "conditions": "Homo sapiens, SW-620, 144 h; continuous exposure six days", "description": "as §1, §2"}, "[7]": {"tested_on": "LNCaP human prostate cancer cells", "assay": "Cell cycle arrest in LNCaP cells (Hoechst 33258 nuclear morphology, flow cytometry)", "format": "cell-based", "description": "To determine whether SR 13179 exerts its antiproliferative activity by perturbing the cell cycle, the nuclear morphology of LNCaP cells was visualized after treatment with SR 13179. The cells were exposed to the compound for 28 h at concentrations of either 0.5 μM or 1 μM and then stained with the nuclear dye Hoechst 33258.\nTo investigate the mitotic arrest in more detail, flow cytometry was used to study the effect of SR 13179 on cell cycle progression for LNCaP cells."}, "[8]": {"tested_on": "MCF-7 human breast cancer xenografts", "assay": "MCF-7 human breast cancer xenografts in nude mice, i.p. administration", "format": "in vivo", "description": "To evaluate the in vivo activity of novel compound SR 13179 against breast cancer, the compound was administered to female BALB/c nude mice that had been implanted with breast cancer cells. In this experiment, MCF-7 human breast cancer cells (2.5×10^6 cells) were implanted subcutaneously in both flanks of each mouse. Two days after cell inoculation, one estradiol pellet (10 μg/pellet) was implanted into each mouse by subcutaneous implantation. When tumor volumes reached 100 mm^3 (Day 0), SR 13179 was administered at a dose of 12.5 mg/kg, 25 mg/kg and 50 mg/kg intraperitoneally (i.p.) once a day, as a suspension in 0.5% hydroxypropyl cellulose. Body weights and tumor volumes were measured twice a week for 14 days. The tumor volume was expressed as % of initial tumor size which was designated as 100% on Day 0."}, "human TIMP-2 mRNA": {"tested_on": "human TIMP-2 mRNA", "assay": "Northern blot analysis of TIMP-2 mRNA, MCF10CA1a cells", "format": "cell-based", "conditions": "0.5, 1, 3, or 5 μM", "description": "Northern blotting. Ten μg of total RNA was electrophoresed in 1% agarose gel containing 6% formaldehyde, transferred to nylon membrane (Amersham Hybond N) by capillary blotting and fixed to the filter by exposure to UV. The blot was probed with a 600 bp ^32P-labeled cDNA sequence of human TIMP-2. Hybridizations were carried out at 42° C. in 50% formamide, 5×SSC, 5×Denhardt's solution, 0.1% SDS, and 0.3 mg/ml salmon sperm DNA. Filters were exposed to X-ray film (Kodak XAR-2) at −80° C. using an intensifying screen (Coronex Hi-Plus).\nThe effect of SR13179 on the extracellular levels of TIMP-2 as well as MMP-2 was also investigated. Treatment of MCF-10CA1a cells with SR13179 at 5 μM concentration caused 5- to 8-fold increase in the secreted level of TIMP-2 and a 2-fold decrease in the extracellular level of MMP-2. However, extracellular TIMP-2 protein was always associated with MMP-2 protein, even after the samples were boiled for 10 min and separated under the denaturing conditions of gel electrophoresis."}, "[9]": {"conditions": "12.5, 25 and 50 mg/kg i.p. once a day"}}, "data": [{"smiles": "COc1cc(C2CC(O)c3ccc4ccccc4c3O2)cc(OC)c1OC", "note": "(stereo not shown) [SR 13179, 2-(3,4,5-trimethoxyphenyl)-3,4-dihydro-2H-benzo[h]chromen-4-ol]", "values": [{"measurement": "IC50", "setting": "[1]", "result": 3.01, "unit": "µM"}, {"measurement": "IC50", "setting": "[2]", "result": 0.18, "unit": "µM"}, {"measurement": "IC50", "setting": "[3]", "result": 0.266, "unit": "µM"}, {"measurement": "IC50", "setting": "[4]", "result": 0.278, "unit": "µM"}, {"measurement": "IC50", "setting": "[5]", "result": 0.31, "unit": "µM"}, {"measurement": "IC50", "setting": "[6]", "result": 0.281, "unit": "µM"}, {"measurement": "nuclear morphology (Hoechst 33258)", "setting": "[7]; 0.5 μM or 1 μM, 28 h", "result": "chromatin condensation characteristic of a prometaphase arrest"}, {"measurement": "G2/M fraction compared with the control", "setting": "[7]; 2 μM and greater, 24 h, flow cytometry", "result": "two-fold increase"}, {"measurement": "tumor growth", "setting": "[8]; 12.5 mg/kg/day i.p., 14 days", "result": "complete suppression of tumor growth"}, {"measurement": "tumor size compared to the size at Day 0", "setting": "[8]; 50 mg/kg/day i.p., 14 days", "result": "slight regression in tumor size"}, {"measurement": "body weights of the treated mice", "setting": "[8]; [9]", "result": "unaffected"}, {"measurement": "overt toxicity", "setting": "[8]; [9]", "result": "no overt toxicity was observed"}, {"measurement": "TIMP-2 mRNA", "setting": "human TIMP-2 mRNA", "result": "dose-dependent induction"}]}]}
